Experimental data taken from patent publication US6046218A, “Pyridine derivative and medicament containing the same as an effective ingredient” (SS Pharmaceutical Co., Ltd., priority 1996, dated 2000).
Where a name gives a salt, the structure may show the parent alone.

Key:
IL-4 production = test: Test 1: inhibition of IL-4 production in human T-cell strain ATL-16T(-) stimulated with PMA (R&D Systems EIA); assay type: cell-based; details: ATL-16T(-) 1×10^6 cells/0.5 ml/well, 20 nM PMA, 48 hours, read-out: Inhibition rate of IL-4 production; for inhibition at 10 µM: 10^-5 M; for inhibition at 1 µM: 10^-6 M; for inhibition at 0.1 µM: 10^-7 M; for inhibition at 0.01 µM: 10^-8 M
Protocol: Test 1: Test on the inhibition of IL-4 production
Into individual wells of a 48-well microplate, the human T-cell strain ATL-16T(-) was poured at a concentration of 1×10^6 cells/0.5 ml/well (n=3), followed by the addition of a stimulator (20 nM of PMA) and a medicament at the same time. The resulting mixture was incubated in 5% CO2 at 37° C. for 48 hours. After incubation, 100 μl of the supernatant were collected and subjected to measurement by a human IL-4 EIA kit (R&D SYSTEMS, INC.). The inhibition rate was calculated according to the following formula. [formula]

IL-5 production = test: Test 3: inhibition of IL-5 production in human PBMC stimulated with ConA; assay type: cell-based; details: 10^-6 M, 10 μg/ml ConA, 48 hours, read-out: Inhibition rate of IL-5 production
Protocol: Test 3: Test on the inhibition of IL-5 production
The peripheral blood was collected from a normal volunteer and peripheral blood mononuclear cells (PBMC) of the human peripheral blood were separated therefrom by the specific gravity centrifugation method. They were suspended in an AIM-V medium and their cell count was adjusted. To individual wells of a 96-well incubation plate, 1×10^6 cells/ml of PBMC were poured, followed by the addition of a stimulator (10 μg/ml of ConA) and a medicament. The resulting mixture was incubated in 5% CO2 at 37° C. for 48 hours. After incubation, 50 μl of the supernatant were collected and subjected to measurement by a human IL-5 EIA kit (BIO SOURCE, INC.). The inhibition rate was calculated according to the following formula. [formula]

Structure (SMILES) | inhibition at 10 µM (IL-4 production) [%] | inhibition at 1 µM (IL-4 production) [%] | inhibition at 0.1 µM (IL-4 production) [%] | inhibition at 0.01 µM (IL-4 production) [%] | inhibition at 1 µM (IL-5 production) [%]
COc1cc(/C=C/C(O)C2CCCC2)ncc1OCCCCCC(=O)O (stereo not drawn) [Ex. 36, 6-[2-(3-Cyclopentyl-3-hydroxy-1-propenyl)-4-methoxy-5-pyridyloxy]hexanoic acid hydrochloride] | 85.1 | 78.9 | 68.6 | 37.6 | 86.5
COC(=O)CCCOc1cnc(/C=C/C(=O)C2CCCC2)cc1OC [Ex. 18, Methyl 4-[4-methoxy-2-(3-cyclopentyl-3-oxo-1-propenyl)-5-pyridyloxy]butanoate] | 88.2 | 78.3 | 67.8 | 34.8 | 96.9
COC(=O)CCCCCOc1cnc(/C=C/C(=O)C2CCCC2)cc1OC [Ex. 17, Methyl 6-[4-methoxy-2-(3-cyclopentyl-3-oxo-1-propenyl)-5-pyridyloxy]hexanoate] | 111 | 92.8 | 88.6 | 74.7 | 84.3
CCCCCC(=O)/C=C/c1cc(OCCCC(=O)OCC)c(OC)cn1 [Ex. 13, Ethyl 4-[5-methoxy-2-(3-oxo-1-octenyl)-4-pyridyloxy]butanoate] | 87.9 | 77 | 68.7 | 62.3 | 80.9
COC(=O)CCCOc1cc(/C=C/C(=O)c2ccccc2)ncc1OC [Ex. 16, Methyl 4-[5-methoxy-2-(3-oxo-3-phenyl-1-propenyl)-4-pyridyloxy]butanoate] | 90.1 | 82.1 | 81.6 | 76.8 | 79.4
COc1cnc(/C=C/C(O)c2ccccc2)cc1O (stereo not drawn) [Ex. 24, 4-Hydroxy-2-(3-hydroxy-3-phenyl-1-propenyl)-5-methoxypyridine] | 92.2 | 79.5 | 69.5 | 56 | 80
COc1cnc(/C=C/C(=O)c2ccccc2)cc1OCCCC(=O)O [Ex. 33, 4-[5-methoxy-2-(3-oxo-3-phenyl-1-propenyl)-4-pyridyloxy]butanoic acid] | 107 | 93.9 | 90 | 86.1 | 72.1
COc1cc(/C=C/C(=O)c2ccccc2)ncc1O [Ex. 21, 5-hydroxy-4-methoxy-2-(3-oxo-3-phenyl-1-propenyl)pyridine] | 97.3 | 90.3 | 80.1 | 72.5 | 67.3
CCOC(=O)COc1cc(/C=C/C(=O)c2ccccc2)ncc1OC [Ex. 45] | 89.5 | 86.4 | 80.1 | 74 | 64.3
CCCCOc1cc(/C=C/C(=O)c2ccccc2)ncc1OC [Ex. 46, 4-Butoxy-5-methoxy-2-(3-oxo-3-phenyl-1-propenyl)pyridine] | 76.6 | 69.1 | 33.8 | 11.8 | 86.9
COCCOCOc1cc(/C=C/C(=O)c2ccccc2)ncc1OC [Ex. 48, 5-Methoxy-4-methoxyethoxymethoxy-2-(3-oxo-3-phenyl-1-propenyl)pyridine] | 111 | 74.7 | 50.1 | 7.6 | 62.2
COc1cnc(/C=C/C(O)c2ccccc2)cc1OC (stereo not drawn) [Ex. 23, 4,5-dimethoxy-2-(3-hydroxy-3-phenyl-1-propenyl)pyridine] | 88 | 80.7 | 64.9 | 64.7 | 96.3
COc1cnc(/C=C/C(=O)c2ccccc2)cc1OC(C)=O [Ex. 7, 4-Acetoxy-5-methoxy-2-(3-oxo-3-phenyl-1-propenyl)pyridine] | 91.8 | 79.8 | 76.4 | 63.9 | 94.2
CCOC(=O)CCCCCOc1cc(/C=C/C(=O)c2ccccc2)ncc1OC [Ex. 12, Ethyl 6-[5-methoxy-2-(3-oxo-3-phenyl-1-propenyl)-4-pyridyloxy]hexanoate] | 78.6 | 61.6 | 52.9 | 43 | 72.4
COc1cc(/C=C/C(=O)C2CCCC2)ncc1OCCCCCC(=O)O [Ex. 38, 6-[2-(3-Cyclopentyl-3-oxo-1-propenyl)-4-methoxy-5-pyridyloxy]hexanoic acid hydrochloride] | 76.3 | 68.9 | 59 | 42.4 | 88.7
COC(=O)CCCCCOc1cnc(/C=C/C(O)C2CCCC2)cc1OC (stereo not drawn) [Ex. 31, Methyl 6-[2-(3-cyclopentyl-3-hydroxy-1-propenyl)-4-methoxy5-pyridyloxy]hexanoate] | 81.2 | 69.5 | 58 | 40.4 | 71.6
CCCCCC(O)/C=C/c1cc(OCCCCCC(=O)O)c(OC)cn1 (stereo not drawn) [Ex. 35, 6-[2-(3-Hydroxy-1-octenyl)-5-methoxy-4-pyridyloxy]hexanoic acid] | 90.3 | 89.3 | 82.5 | 64.3 | 82.2
CCCCCC(=O)/C=C/c1cc(OC2CCCC2)c(OC)cn1 [Ex. 9, 4-Cyclopentyloxy-5-methoxy-2-(3-oxo-1-octenyl)pyridine] | 94.6 | 92.7 | 86.5 | 70.7 | 82.5
CCCCCC(=O)/C=C/c1cc(OC(C)=O)c(OC(C)=O)cn1 [Ex. 11, 4,5-diacetoxy-2-(3-oxo-1-octenyl)pyridine] | 94.1 | 87.2 | 79.6 | 78.9 | 77.3
COc1cnc(/C=C/C(=O)c2ccccc2)cc1OC(=O)c1ccccc1 [Ex. 43, 4-benzoyloxy-5-methoxy-2-(3-oxo-3-phenyl-1-propenyl)pyridine] | 80.8 | 72.6 | 70.3 | 35.5 | 61.4
CCCCCC(=O)/C=C/c1cc(O)c(O)cn1 [Ex. 22, 4,5-Dihydroxy-2-(3-oxo-1-octenyl)pyridine] | 111 | 75.5 | 67.6 | 50 | 80.9
COc1cc(/C=C/C(=O)c2ccccc2)ncc1OC(C)=O [Ex. 6, 5-Acetoxy-4-methoxy-2-(3-oxo-3-phenyl-1-propenyl)pyridine] | 102 | 86.1 | 75.2 | 58.8 | 67
COc1cnc(/C=C/C(=O)c2ccccc2)cc1OC1CCCC1 [Ex. 2, 4-Cyclopentyloxy-5-methoxy-2-(3-oxo-3-phenyl-1-propenyl)pyridine] | 113 | 103 | 93.5 | 82.8 | 93.4
CC(=O)Oc1cnc(/C=C/C(=O)c2ccccc2)cc1OC(C)=O [Ex. 8, 4,5-Diacetoxy-2-(3-oxo-3-phenyl-1-propenyl)pyridine] | 94.3 | 88 | 76.2 | 60.2 | 75.3
CCCCCC(O)/C=C/c1cc(OCCCCCC(=O)OC)c(OC)cn1 (stereo not drawn) [Ex. 30, Methyl 6-[2-(3-hydroxy-1-octenyl)-5-methoxy-4-pyridyloxy]hexanoate] | 74 | 67 | 56.8 | 40.7 | 73.2
COCOc1cnc(/C=C/C(=O)c2ccccc2)cc1OCOC [Ex. 5, 4,5-Bis(methoxymethyloxy)-2-(3-oxo-3-phenyl-1-propenyl)pyridine] | 104 | 90 | 74 | 50.9 | 89.3
COc1cnc(/C=C/C(=O)N2CCOCC2)cc1OC [Ex. 110, 4,5-Dimethoxy-2-(3-morpholino-3-oxo-1-propenyl)pyridine hydrochloride] | – | – | – | – | 79.3
COc1ccc(OC)c(C(=O)/C=C/c2cc(O)c(OC)cn2)c1 [Ex. 57, 4-Hydroxy-5-methoxy-2-[3-(2,5-dimethoxyphenyl)-3-oxo-1-propenyl]pyridine] | – | – | – | – | 82.5
